Results on nine compounds are retold here after patent US20130331381A1, “Treatment of Cancer WIth Dopamine Receptor Antagonists” (McMaster University, priority 2011, published 2013).

Structures can show the parent of a compound that is named as a salt. Where two headings read alike, the source gives them in different places.

In data set [1] the test system is HL-60, OCI-AML2 and OCI-AML3. Briefly: Cytotoxicity of DR agonists and antagonists against AML cell lines. It is filed as cell-based, human. The settings on record: CLOZ at higher concentrations; FIG. 6. The procedure:
(§1) All three lines are leukemic cell lines. HL-60 was derived from promyelocytic AML whereas MV 4-11 and OCI-AML3 are representative of AML. Each compound was incubated with the cells for 72 h. The control was DMSO (ie the vehicle used for the compound) for 72 h. Each condition had three replicates.
A series of dopamine receptor agonists, D3-antagonists, DR1 & 5-antagonists and multi-receptor antagonists were tested for cytotoxicity against three AML cell lines HL-60, OCI-AML2 and OCI-AML3. Testing was performed as set out in Example 1.

For data set [2], the system named is HL-60, MV4-11 and OCI-AML3. Briefly: Cytotoxicity to leukemic cell lines (normalized cell number, 72 h). The format is cell-based, human. The settings on record: for normalized cell number / toxicity: 10 μM. The procedure: as §1
The dopamine receptor antagonist and phenothiazine-related compound chlorpromazine was also investigated for effects on the AML cell lines HL-60, MV4-11 and OCI-AML3. Testing was performed as set out in Example 1.

The test system of the next data set is AML-OCI2 and AML-OCI3. Briefly: Volumetric cell counting of AML cell lines. The format is cell-based, human. The conditions noted are these: 72 h, serum-free conditions. The procedure: The number of AML-OCI2 and AML-OCI3 cells present after 72 h treatment with DR antagonists (FIG. 16b) and agonist (FIG. 16c-d) were counted by measuring the number of events within a fixed volume following the grating strategy defined by forward scatter and side scatter clustering, 7AAD− and Hoechst+.
(§2) Due to the bioavailability of dopamine in fetal bovine serum (FBS) (Little et al., 2002), serum-free conditions were employed to assess the role of DRs in AML. […] DR D2-family and D1-family exert opposing actions on intracellular signaling leading to differential biological effects (Self et al., 1996).

The test system of the next data set is primary AML cells. Briefly: Methylcellulose blast-CFU assay, primary AML cells. The conditions noted are these: for AML-blast CFU potential: salinomycin at 1 μM and 10 μM, 24 h treatment, 5 AML patient samples. It is filed as cell-based, human.
In data set [3] the test system is normal HSCs and progenitors (CB lin-).
Description: (§3) Normal HSCs and progenitors were sourced from either mobilized peripheral blood or umbilical cord blood of health patients. Primary AML cells were taken from patients diagnosed with AML. Both normal HSCs and primary AML cells were cultured under standard in vitro methocellulose assay conditions (see http://www.stemcell.com/en/Products/All-Products/MethoCult-H4434-Classic.aspx as well as Clinton Campbell et al. The human stem cell hierarchy is defined by a functional dependence on Mcl-1 for self-renewal capacity. Blood 116 (9) 1433-1442 (Jun. 4, 2010), hereby incorporated by reference) for at least 14 days before the number of colonies were recorded.
(§4) AML patient blasts were cultured in IMDM supplemented with 5% heated inactivated FBS (HyClone), 5 ng/mL IL3 (R&D systems), 5×10^−5 M β-mercaptoethanol (Sigma) and BIT (StemCell Technologies). HSC media contained IMDM supplemented with 1% BSA (Sigma), 100 ng/mL SCF (R&D systems), 100 ng/mL Flt-3L (R&D systems) and 20 ng/mL TPO (R&D systems). Patient HSPC and AML samples were treated with compound or DMSO-vehicle (0.1%) for 24 h prior to CFU plating or xenotransplantation studies.
(§5) AML patient or CB lin− cells were cultured 24 hours in the presence of compound or DMSO-vehicle (0.1%) control. AML cells were plated at 50 000 cells/mL in Methocult GF H4434 (Stem Cell Technologies). CB lin− cells were plated at 1000 cells/mL in Methocult GF H4434 (Stem Cell Technologies). Colonies were scored after 14 days of culture using standard morphological criteria.
In another data set the test system is v1H9-Oct4-GFP cells. Briefly: Chemical screen for differentiation of neoplastic hPSC (GFP and Hoechst). The settings on record: Homo sapiens; for activity at 10 µM: 72 h, read-out: Hoechst % RA (residual activity). It is filed as cell-based. The procedure: Chemical screens involved v1H9-Oct4-GFP cells seeded at 5,000 cells per well in mouse embryonic fibroblast conditioned media (MEFCM) supplemented with 8 ng/ml bFGF. 24 hours later the media was exchanged for MEFCM with compounds at 10 μM and 0.1% DMSO, 0.1% DMSO (−BMP4) or 100 ng/ml of BMP4 and 0.1% DMSO (+BMP4) for 48 hours before being exchanged with fresh media with compound for a further 24 h (total compound treatment time 72 h) prior to being fixed and prepared for automated imaging and plate reader analysis. Confluent H9 & fibroblast-derived iPSC were seeded at 10,000 cells per well in MEFCM supplemented with 8 ng/ml bFGF. 24 hours later the cells were treated with compounds at 10 μM and 0.1% DMSO, 0.1% DMSO (−BMP4) or 100 ng/ml of BMP4 and 0.1% DMSO (+BMP4). Fresh MEFCM supplemented with compounds was exchanged daily for 5 days. On day 5, hPSC's were fixed and prepared for automated imaging and plate reader analysis. See supplementary experimental procedures for further details.
Cells were fixed in 2% paraformaldehyde and stained with 10 μg/mL Hoechst 33342 (Invitrogen) with a Combi Multidrop Dispenser (Thermo). For experiments that involved Oct4 immunocytochemistry, a monoclonal antibody for Oct4 (BD) was used along with an Alexa-Fluor-647 secondary (Invitrogen). Immunocytochemical staining was performed by a Janus automated liquid handler (Perkin Elmer). Images were acquired at 10×N.A with an Arrayscan HCS VTI Reader (Cellomics) by means of epi-fluorescence illumination and standard filter sets.
Image analysis was performed using custom scripts in Acapella software (Perkin Elmer). Nuclear objects were segmented from the Hoechst signal. For neoplastic cell lines, object intensity analysis was performed on GFP positive cells only. For normal cell lines, the fraction of Alexa-Fluor-647-positive cells was quantified. Images and well-level data were stored and analysed in a Columbus Database (Perkin Elmer) and further data analysis, compounds registration and hit identification in ActivityBase (IDBS).
These Collections have been previously scrutinized in numerous other mammalian cell lines (Diallo et al., 2010; Shoemaker, 2006).

A further data set deals with AML LSCs. Briefly: Xenotransplantation of compound-treated AML cells. The settings on record: AML cells treated at 10 μM, NSG mice. The format is in vivo, human. How it is done: NOD.Cg-Prkdc^scid II2rg^tm1Wjl/SzJ adult mice (NSG) were sub-lethally irradiated with 315 rads 24 hours prior transplantation. 0.8−1.0×10^7 AML MNCs or 1.5−1.8×10^5 CB lin− hematopoietic cells treated with compound or DMSO-vehicle for 24 h were injected via tail vein (IV). After 6-10 weeks, animals were culled, and the BM and spleen were analyzed for the presence of human cells by flow cytometry (LSRII, BD) and data was analyzed using FlowJo software (Tree Star Inc). For secondary HSPC transplants, equal number of engrafted human cells from CB lin− transplants were injected IV in adult irradiated NSG mice as described for primary transplants.

The test system of data set [4] is neoplastic hPSCs (v1H9-Oct4-GFP). Briefly: Flow cytometry of Oct4 in neoplastic hPSCs. It is filed as cell-based, human. The conditions noted are these: FIG. 10b. (In general: In flow cytometry, cells or beads pass a laser one at a time.)
For a further data set, the system named is patient AML cells. Briefly: CD11b granulocytic maturation in patient AML cells. The format is cell-based, human. The conditions noted are these: 10 μM, up to 96 hours.
Data set [5] concerns patient AML samples, DR+ and DR- subfractions. Briefly: Blast-CFU content of DR+ and DR- sorted patient AML samples. It is filed as cell-based, human. The conditions noted are these: 24 h treatment.
Excerpt: as §2

Data set [6] concerns CD14+ cells in primary AML. Briefly: Frequency of CD14+ cells in primary AML by flow cytometry. The format is cell-based, human. The settings on record: 10 μM, 72 h; control 100%.
In data set [7] the test system is normal HSCs and progenitors (CB lin-). Briefly: Methylcellulose colony forming assay, normal HSCs / HSPCs. The settings on record: 10 μM, at least 14 days; DMSO control about 100.
Description: as §3, §4, §5
The test system of another data set is neoplastic hPSCs. Briefly: TaqMan Low-Density Array-qPCR of differentiation genes. The conditions noted are these: thioridazine-treated neoplastic hPSCs. It is filed as cell-based, human. (In general: Quantitative PCR measures a nucleic acid by following its amplification.)

Usually EC50 stands for the midpoint of the concentration-response curve.

Description for primary AML cells: as §3, §4, §5

For `CN1CCN(C2=Nc3cc(Cl)ccc3Nc3ccccc32)CC1` [clozapine, Clozapine], the “cytotoxicity of AML cell lines” value in data set [1] was “significant effect”.

For `CN(C)CCCN1c2ccccc2Sc2ccc(Cl)cc21` [chlorpromazine, Chlorpromazine hydrochloride], in data set [2], the “normalized cell number / toxicity” value is given as “toxic”. Further, in data set [1], the “cytotoxicity of AML cell lines” value is recorded as “significant effect”. The “number of AML cells” value with AML-OCI2 and AML-OCI3 was “reduced”.

Regarding `CC[C@@H](C(=O)[C@@H](C)[C@@H](O)[C@H](C)[C@@H]1O[C@@H]([C@@H](CC)C(=O)O)CC[C@@H]1C)[C@H]1O[C@]2(C=C[C@@H](O)[C@]3(CC[C@@](C)([C@H]4CC[C@](O)(CC)[C@H](C)O4)O3)O2)[C@H](C)C[C@@H]1C` [salinomycin], in the data set with primary AML cells, the “AML-blast CFU potential” value is given as “reduced”. Besides, in data set [3], the “HSPC CFU potential” value is listed as “reduced”.

Take `Cn1cnc([N+](=O)[O-])c1Sc1ncnc2nc[nH]c12` [azathioprine]: the activity at 10 µM in the data set on v1H9-Oct4-GFP cells (10 μM) is > 30%.

As to `Oc1cc2c(cc1O)[C@@H](c1ccccc1)CNCC2` [SKF38393, (R)-(+)-SKF-38393 hydrochloride], in the data set with AML-OCI2 and AML-OCI3, the “number of AML cells” value is on record as “significant reduction”.

As for `Br.CCCN(CCC)[C@@H]1CCc2ccc(O)cc2C1` [70H-DPAT, R(+)-7-Hydroxy-DPAT hydrobromide], in the data set on AML-OCI2 and AML-OCI3, the “number of AML cells” value is reported as “increased”.

For `OC(c1cc(C(F)(F)F)nc2c(C(F)(F)F)cccc12)C1CCCCN1` (stereo not shown) [mefloquine], the activity at 10 µM in the data set on v1H9-Oct4-GFP cells (10 μM) was > 30%. Further, the concentration for a half-maximal effect (EC50) with v1H9-Oct4-GFP cells (dose response, FIG. 9g, read-out: EC50, reduction in GFP intensity) is < 10 µM. Further, the “AML-blast CFU potential” value in the data set with primary AML cells is given as “reduced”. In addition, the “AML LSC capacity (CD45+ CD33+ blast engraftment)” value in the data set with AML LSCs is listed as “ineffective”. For the same compound, in data set [4], the “cell number, neoplastic hPSCs” value is “reductions” and the “levels of Oct4 in neoplastic hPSCs” value is given as “reductions”. Moreover, in [3], the “HSPC CFU potential” value is reported as “little effect”.

Take `CSc1ccc2c(c1)N(CCC1CCCCN1C)c1ccccc1S2` (racemic) [thioridazine, 10-{2-[(RS)-1-Methylpiperidin-2-yl]ethyl}-2-methylsulfanylphenothiazine]: in the data set on patient AML cells, the “frequency of CD11b granulocytic AML-blast cells” value is given as “marked increase”. In the data set on v1H9-Oct4-GFP cells (10 μM), the activity at 10 µM was > 30%. Also, in the data set with primary AML cells (10 μM, at least 14 days, control about 22), the “number of CFU colonies, AML cells” value was 1.6 blast colonies. For the same compound, the “AML-blast CFU potential” value in the data set on primary AML cells is listed as “reduced”. Moreover, the normalized cell number result in [2] (0.1 μM and 1 μM) is “little effect”. In addition, in data set [2], the “normalized cell number / toxicity” value is recorded as “almost zero”. Moreover, the “AML LSC capacity (CD45+ CD33+ blast engraftment)” value in the data set on AML LSCs is reported as “significantly reduce”. Moreover, in data set [4], the “cell number, neoplastic hPSCs” value is “reductions” and the “levels of Oct4 in neoplastic hPSCs” value was “reductions”. For the same compound, in data set [5], the “blast-CFU generation, DR+ subfraction” value is recorded as “reduction” and the “blast-CFU generation, DR- subfraction” value is “no reduction”. Besides, the “cytotoxicity of AML cell lines” value in data set [1] is given as “significant effect”. In addition, the “normalized frequency of CD14+ cells” value in data set [6] worked out at 20%. Besides, in the data set on AML-OCI2 and AML-OCI3, the “number of AML cells” value was “reduced”. In data set [3], the “HSPC CFU potential” value is “little effect”. The “colony forming potential of normal HSCs, total colonies” value in data set [7] is “about 66 total colonies”. The upregulated differentiation-associated genes in the data set with neoplastic hPSCs is listed as 21 of 50.

Regarding `CNC1CC(c2ccc(Cl)c(Cl)c2)c2ccccc21` (stereo not shown) [indatraline], in the data set with v1H9-Oct4-GFP cells, the activity at 10 µM is > 30%.
